From ChEMBL document CHEMBL1201862, “PubChem BioAssay data set” (2004)
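Dose response: 5 concentrations. Exposure: 48 h. Format: 96-well plates. Endpoint: linear interpolation; highest concentration if not reached. GI50 = concentration required for 50% inhibition of growth.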 Calls of active or inactive are those of the source. No stated cut-off is given here; in the data, active = GI50 up to about 1.1 µM and inactive = higher.

Key:
Assay in all cases: NCI anticancer screen, dose series, 48 h
K562 = system: K562
MCF7 = system: MCF7
OVCAR-5 = system: OVCAR-5
SK-MEL-2 = system: SK-MEL-2
MDA-MB-231 = system: MDA-MB-231
MOLT-4 = system: MOLT-4
EKVX = system: EKVX
LOX IMVI = system: LOX IMVI
UO-31 = system: UO-31
SR = system: SR
OVCAR-8 = system: OVCAR-8
CCRF-CEM = system: CCRF-CEM
SK-MEL-5 = system: SK-MEL-5
HT-29 = system: HT-29
Malme-3M = system: Malme-3M
786-0 = system: 786-0
HCT-15 = system: HCT-15
BT-549 = system: BT-549
A549 = system: A549
RXF 393 = system: RXF 393

SMILES | GI50 (K562) | GI50 (MCF7) | GI50 (OVCAR-5) | GI50 (SK-MEL-2) | GI50 (MDA-MB-231) | GI50 (MOLT-4) | GI50 (EKVX) | GI50 (LOX IMVI) | GI50 (UO-31) | GI50 (SR) | GI50 (OVCAR-8) | GI50 (CCRF-CEM) | GI50 (SK-MEL-5) | GI50 (HT-29) | GI50 (Malme-3M) | GI50 (786-0) | GI50 (HCT-15) [µM] | GI50 (BT-549) | GI50 (A549) | GI50 (RXF 393)
O=C1/C(=C\c2cccc(Oc3ccccc3)c2)SC(c2ccccc2)N1c1ccccc1Cl (stereo not given) | 23 µM (inactive) | 28.1 µM (inactive) | 76 µM (inactive) | 27.9 µM (inactive) | 30.3 µM (inactive) | 34.8 µM (inactive) | 28.8 µM (inactive) | 22.2 µM (inactive) | 31 µM (inactive) | 19.3 µM (inactive) | 21.9 µM (inactive) | 6.87 µM (inactive) | 15.1 µM (inactive) | 19.7 µM (inactive) | 33.6 µM (inactive) | 25.6 µM (inactive) | 41.9 | 21.3 µM (inactive) | 37.5 µM (inactive) | 20.8 µM (inactive)
COc1ccc2c(c1)C(=O)CC(N)C2 (stereo not given) | > 100 µM (inactive) | > 100 µM (inactive) | > 100 µM (inactive) | > 100 µM (inactive) | > 100 µM (inactive) | 19.5 µM (inactive) | 57 µM (inactive) | > 100 µM (inactive) | 40.6 µM (inactive) | 55.7 µM (inactive) | > 100 µM (inactive) | 64.9 µM (inactive) | > 100 µM (inactive) | > 100 µM (inactive) | > 100 µM (inactive) | > 100 µM (inactive) | > 100 | > 100 µM (inactive) | > 100 µM (inactive) | > 100 µM (inactive)
C[N+]1([O-])C2CCC1CC(OC(=O)C(CO)c1ccccc1)C2 (stereo not given) | > 100 µM (inactive) | > 100 µM (inactive) | > 100 µM (inactive) | > 100 µM (inactive) | > 100 µM (inactive) | > 100 µM (inactive) | > 100 µM (inactive) | > 100 µM (inactive) | > 100 µM (inactive) | > 36.6 µM (inactive) | > 100 µM (inactive) | > 100 µM (inactive) | > 100 µM (inactive) | > 100 µM (inactive) | > 100 µM (inactive) | > 100 µM (inactive) | > 55.8 | > 66.5 µM (inactive) | > 100 µM (inactive) | > 100 µM (inactive)
COc1nc2c(c(=O)n1C)NC(C(O)C(O)CO)C=N2 (stereo not given) | > 10 µM (inactive) | > 10 µM (inactive) | > 10 µM (inactive) | > 10 µM (inactive) | > 10 µM (inactive) | > 10 µM (inactive) | > 10 µM (inactive) | > 10 µM (inactive) | > 10 µM (inactive) | > 10 µM (inactive) | > 10 µM (inactive) | > 10 µM (inactive) | > 10 µM (inactive) | > 10 µM (inactive) | > 10 µM (inactive) | > 10 µM (inactive) | > 10 | > 10 µM (inactive) | > 10 µM (inactive) | > 10 µM (inactive)
O=C1C2CCCCC2C(=O)N1n1c(Cc2ccccc2)n[nH]c1=O (stereo not given) | > 100 µM (inactive) | > 100 µM (inactive) | > 100 µM (inactive) | > 100 µM (inactive) | > 100 µM (inactive) | > 100 µM (inactive) | > 100 µM (inactive) | > 100 µM (inactive) | > 100 µM (inactive) | > 100 µM (inactive) | > 100 µM (inactive) | > 100 µM (inactive) | > 100 µM (inactive) | > 100 µM (inactive) | > 100 µM (inactive) | > 100 µM (inactive) | > 100 | > 100 µM (inactive) | > 100 µM (inactive) | > 100 µM (inactive)
O=C(N/N=C/c1ccc(Br)cc1)N/N=C/c1ccc(Br)cc1 | 16.6 µM (inactive) | 11.3 µM (inactive) | 35.3 µM (inactive) | 75.5 µM (inactive) | 3.38 µM (inactive) | 4.42 µM (inactive) | 10.3 µM (inactive) | 3.98 µM (inactive) | 10.9 µM (inactive) | 4.33 µM (inactive) | 5.08 µM (inactive) | 3.24 µM (inactive) | 14.1 µM (inactive) | 11.4 µM (inactive) | 3.05 µM (inactive) | 3.92 µM (inactive) | 16.8 | 20.9 µM (inactive) | 16 µM (inactive) | 13.3 µM (inactive)
O=C1Cc2c(-c3cccs3)cc(-c3ccccc3)nc2-c2ccccc2N1 | > 100 µM (inactive) | 96.8 µM (inactive) | > 100 µM (inactive) | 86.3 µM (inactive) | 9.48 µM (inactive) | > 100 µM (inactive) | 33.7 µM (inactive) | 36.5 µM (inactive) | > 100 µM (inactive) | > 100 µM (inactive) | 1.45 µM (inactive) | > 100 µM (inactive) | 19.5 µM (inactive) | 10.8 µM (inactive) | 9.95 µM (inactive) | 21.9 µM (inactive) | 40.1 | > 100 µM (inactive) | 93.1 µM (inactive) | 32.8 µM (inactive)
Cc1ncc([N+](=O)[O-])n1CCN(C)CCCCn1ccnc1[N+](=O)[O-] | > 100 µM (inactive) | > 100 µM (inactive) | > 100 µM (inactive) | > 100 µM (inactive) | > 100 µM (inactive) | > 100 µM (inactive) | > 100 µM (inactive) | > 100 µM (inactive) | > 100 µM (inactive) | > 100 µM (inactive) | > 100 µM (inactive) | > 100 µM (inactive) | > 100 µM (inactive) | > 100 µM (inactive) | > 100 µM (inactive) | > 100 µM (inactive) | > 100 | > 100 µM (inactive) | > 100 µM (inactive) | > 100 µM (inactive)
COc1cccc2c1C(=O)c1c(O)c3c(c(O)c1C2=O)C[C@@](O)(C(=O)CO)C[C@@H]3OC1CC2C(OCN3CN2COC2C(C)OC(O[C@H]4C[C@](O)(C(=O)CO)Cc5c(O)c6c(c(O)c54)C(=O)c4c(OC)cccc4C6=O)CC23)C(C)O1 (stereo not given in full) | 0.0684 µM (active) | 0.0179 µM (active) | 0.131 µM (active) | 0.0362 µM (active) | 0.0741 µM (active) | 0.00269 µM (active) | 0.203 µM (active) | 0.0134 µM (active) | 0.139 µM (active) | 0.00119 µM (active) | 0.0376 µM (active) | 0.00916 µM (active) | 0.0614 µM (active) | 0.0428 µM (active) | 0.0444 µM (active) | 0.02 µM (active) | 0.161 | 0.157 µM (active) | 0.0269 µM (active) | 0.0106 µM (active)
N=C(N)SC(c1ccccc1)c1ccccc1 | 22.4 µM (inactive) | 15.4 µM (inactive) | 14.2 µM (inactive) | 15 µM (inactive) | 15.2 µM (inactive) | 15.7 µM (inactive) | 15 µM (inactive) | 15.2 µM (inactive) | 11.2 µM (inactive) | 24 µM (inactive) | 15.3 µM (inactive) | 10.5 µM (inactive) | 17.3 µM (inactive) | 13.3 µM (inactive) | 18.6 µM (inactive) | 12.6 µM (inactive) | 16.4 | 17.6 µM (inactive) | 25.2 µM (inactive) | 6.52 µM (inactive)
